Tested on: mice
Test: 2-phenyl-1,4-benzoquinone-induced writhing test in mice (Phenylquinone Writhing, PQW), analgesic activity
Type: in vivo
Source text: The compounds of Formula I of the present invention are useful as analgesic agents due to their ability to alleviate pain in mammals. […] Exptl. Biol. Med., 95, 729 (1957)].

Compound | Analgesic PQW, % Inhibition of Writhing at 20 mg/kg., s.c. [%] | Analgesic PQW, % Inhibition of Writhing (reference compound, at 3.9 mg/kg, s.c.) (3.9 mg/kg) [%]
Cc1nnc2n1-c1ccccc1-c1cc3ccccc3n1C2 [1-Methyl-4H-indolo[1,2-d][1,2,4]triazolo[4,3-a][1,4]benzodiazepine] | 37 | –
Cc1nnc2n1-c1ccc(Cl)cc1-c1c(Cl)c3ccccc3n1C2 [10,12-Dichloro-1-methyl-4H-indolo[1,2-d][1,2,4]triazolo[4,3-a][1,4]benzodiazepine] | 32 | –
Cc1nnc2n1-c1ccccc1-c1c(Cl)c3ccccc3n1C2 [10-Chloro-1-methyl-4H-indolo[1,2-d][1,2,4]triazolo[4,3-a][1,4]benzodiazepin] | 51 | –
Cc1nnc2n1-c1ccc(Cl)cc1-c1cc3ccccc3n1C2 [12-Chloro-1-methyl-4H-indolo[1,2-d][1,2,4]triazolo[4,3-a][1,4]benzodiazepin] | 46 | –
CCC(=O)O[C@](Cc1ccccc1)(c1ccccc1)[C@H](C)CN(C)C [Propoxyphene, reference compound] | – | 50
